Our source for the GI50 and TGI values is PubChem BioAssay (NCI).

Each structure is given as a SMILES string. Values joined by “and” are separate entries in the source; they are usually repeats but may differ in a detail not shown here. Identical values can stand only once.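 Five compound concentrations were applied to cells in 96-well plates for 48 hours; endpoints were derived by simple linear interpolation of the resulting dose-response curve. GI50 marks 50% less growth. The concentration for full growth arrest is given as TGI.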 Where a SMILES comes first, the peptide text is derived from it. [ ]: non-standard residue; d: D form. The star is where a group is joined. ξ: configuration not given here. X3 = COc1ccc(C(N*)c2ccc(OC)cc2)cc1; NMeF = CN[C@@H](Cc1ccccc1)C(=O)O; NMeD = CN[C@@H](CC(=O)O)C(=O)O; NMeV = CN[C@H](C(=O)O)C(C)C; ξNMeV = CNC(C(=O)O)C(C)C; Boc = CC(C)(C)OC(=O)*; ξNMeA = CNC(C)C(=O)O; ξV = CC(C)C(N)C(=O)O Some results are limits rather than exact numbers.

What all share (assay): NCI-60 cell line screen, 48 h
The subject of assay [1] is SW-620 colon.
Assay [2] concerns LOX IMVI melanoma.
In assay [3] the test system is SK-MEL-28 melanoma.
Assay [4] relates to CCRF-CEM leukemia.
Assay [5] has as its system DU-145 prostate.
The test system of assay [6] is SF-295 CNS.
The test system of assay [7] is HCT-15 colon.
The subject of assay [8] is SK-OV-3 ovarian.
Assay [9] deals with NCI/ADR-RES ovarian.
The test system of assay [10] is MCF7 breast.

Consider `Nc1ccc(C2=NNC(=O)Cc3cc4c(cc32)OCCO4)cc1Cl`, for which the GI50 in assay [1] was 2.01 µM; in assay [2], 2.95 µM; in [3] it was 9.1 µM; in [4] it was 3.47 µM; in assay [5], 11.4 µM; in assay [6] it was 2.49 µM. Moreover, the GI50 in [7] is 2.49 µM; in [8], 8.1 µM; in assay [9], 1.3 µM; in assay [10] it was 1.99 µM. Also, the TGI in assay [1], in assay [2], in [3], in [4], in [5] and in assay [6] was > 50 µM in each case. In addition, the TGI in assay [7] is > 50 µM; in [8] it was > 50 µM; in [9], 7.32 µM; in assay [10], > 50 µM.
As to `CCn1c(-c2nonc2N)nc2c(C#CC(C)(C)O)nc(OC[C@@H](N)c3ccccc3)cc21`, the GI50 in [1] is 4.58 µM; in assay [2], 4.2 µM; in assay [3] it was 4.85 µM; in assay [4], 4.08 µM; in assay [5], 4.45 µM; in assay [6], 4.59 µM. For the same molecule, the GI50 was 5.78 µM in assay [7], 4.16 µM in assay [8], 5.16 µM in assay [9] and 2.94 µM in assay [10]. Further, the TGI in assay [1] came out at 9.5 µM; in [2] it was 8.82 µM; in assay [3], 8.47 µM; in assay [4], 23.3 µM; in assay [5] it was 8.85 µM; in assay [6] it was 9.63 µM. The TGI in assay [7] came to 21.1 µM; in assay [8], 9.47 µM; in assay [9], 11.7 µM; in assay [10], 6.12 µM.
For the molecule `CC(=O)CC(OC(C)=O)C1=CCC2C(CC1C)OC(=O)C2C` (stereo not given), the TGI in assay [1], in assay [2], in assay [3], in assay [4], in [5] and in assay [6] was > 100 µM in each case. In addition, the TGI in assay [7], in assay [8], in [9] and in [10] was > 100 µM throughout.
As to `O=C(O)c1nc2nc(Cl)c(Cl)nc2[nH]1`, the TGI in assay [1], in assay [2], in assay [3], in assay [4], in [5] and in assay [6] was > 100 µM throughout. The TGI in assay [7], in assay [8], in [9] and in assay [10] was > 100 µM in each case.
As to `N#CC(C#N)=C/C=C(\Sc1nc2ccccc2s1)c1ccc(Cl)cc1`, the GI50 in [1] is 0.41 µM; in assay [2], 2.59 µM; in assay [3], 5.34 µM; in assay [4], 0.577 µM; in assay [5], 3.98 µM; in [6] it was 8.9 µM. The GI50 in assay [7] is 6.72 µM; in assay [8], 11.9 µM; in assay [9] it was 7.19 µM; in assay [10], 7.65 µM. Besides, the TGI in assay [2] was > 26.5 µM; in assay [3] it was 21.7 µM; in assay [4], > 100 µM; in [5], 17.1 µM; in assay [6], 27.7 µM; in [7] it was > 44.2 µM. In addition, the TGI in assay [8] is > 42.2 µM; in assay [9], 22.6 µM; in [10], > 100 µM.
On to `COCCOc1ccc(-c2nc3ccc(-c4nc5ccc(N6CCN(C)CC6)cc5[nH]4)cc3[nH]2)cc1`, for which the GI50 in assay [1] was 0.9 µM; in [2], 0.851 µM; in [3], 0.478 µM; in assay [4], 1.02 µM; in assay [5], 1.13 µM; in [6], 1.38 µM. Besides, the GI50 in assay [7] was 38.7 µM; in [8], 2.7 µM; in assay [9] it was > 100 µM; in assay [10], 0.316 µM. For the same molecule, the TGI in assay [1] was 4.59 µM; in [2], 2.83 µM; in assay [3], 2.21 µM; in assay [4], > 100 µM; in assay [5], 9.59 µM; in assay [6], 15.7 µM. The TGI in [7] was > 100 µM; in assay [8] it was 15.6 µM; in assay [9], > 100 µM; in assay [10], 11.8 µM.
Take `Nc1cc(NN=C(c2ccc(O)cc2)c2ccc(O)cc2)c([N+](=O)[O-])cc1[N+](=O)[O-]`: the GI50 in [1] is 1.58 µM; in assay [2], 1.65 µM; in assay [3], 1.6 µM; in assay [4] it was 2.54 µM; in [5], 1.64 µM; in assay [6], 1.4 µM. Further, the GI50 was 1.78 µM in assay [7], 2.35 µM in assay [8], 3.49 µM in assay [9] and 1.56 µM in assay [10]. Besides, the TGI is 2.93 µM in [1]; 3.1 µM in [2]; 3.56 µM in assay [3]; 6.13 µM in assay [4]; 2.99 µM in [5]; 2.91 µM in assay [6]. For the same molecule, the TGI in assay [7] turned out to be 4.13 µM; in assay [8], 6.4 µM; in [9], 11.6 µM; in [10], 3.28 µM.
`COc1ccc(C(NC(=O)C[C@@H](C(=O)N(C)C(C)C(=O)O)N(C)C(=O)[C@@H]2CCCN2C(=O)[C@H](C(C)C)N(C)C(=O)C(C(C)C)N(C)C(=O)[C@H](Cc2ccccc2)N(C)C(=O)C(NC(=O)OC(C)(C)C)C(C)C)c2ccc(OC)cc2)cc1` (stereo not given in full) (Boc-[ξV][NMeF][ξNMeV][NMeV]P[NMeD](X3)[ξNMeA]-OH): the GI50 is 18.3 µM in assay [1]; 17.2 µM in [2]; 17.1 µM in [3]; 19.8 µM in [4]; 18.2 µM in assay [7]; 19.2 µM in [8]. The TGI in assay [1] was 16.5 µM and 32.3 µM; in assay [2] it was 15.7 µM and 31.2 µM; in assay [3], 13.6 µM and 30.9 µM; in assay [4] it was 17.5 µM and 41.6 µM; in assay [5], 37.5 µM; in assay [6] it was 30.2 µM and 32.8 µM. For the same molecule, the TGI in [7] is 37.5 µM and 33.3 µM; in assay [8], > 37.5 µM and 33.3 µM; in [9], > 37.5 µM; in assay [10], 37.5 µM.
